Laboratory results published in PubChem BioAssay (NCI).
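These data come from cells grown in 96-well plates and exposed to compound for 48 hours at five concentrations. TGI: concentration producing complete growth inhibition.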

Assays:
Assay in all cases: NCI-60 cell line screen, 48 h
DU-145 prostate = tested on: DU-145 prostate
MCF7 breast = tested on: MCF7 breast
HOP-92 NSCLC = tested on: HOP-92 NSCLC
BT-549 breast = tested on: BT-549 breast
ACHN renal = tested on: ACHN renal
OVCAR-4 ovarian = tested on: OVCAR-4 ovarian
HOP-62 NSCLC = tested on: HOP-62 NSCLC
LOX IMVI melanoma = tested on: LOX IMVI melanoma
M14 melanoma = tested on: M14 melanoma
A549 NSCLC = tested on: A549 NSCLC
SW-620 colon = tested on: SW-620 colon
UACC-257 melanoma = tested on: UACC-257 melanoma
SF-539 CNS = tested on: SF-539 CNS
786-0 renal = tested on: 786-0 renal
HS 578T breast = tested on: HS 578T breast
OVCAR-8 ovarian = tested on: OVCAR-8 ovarian
UACC-62 melanoma = tested on: UACC-62 melanoma
UO-31 renal = tested on: UO-31 renal
OVCAR-3 ovarian = tested on: OVCAR-3 ovarian
HT29 colon = tested on: HT29 colon
A498 renal = tested on: A498 renal
NCI-H23 lung = tested on: NCI-H23 lung
SNB-19 CNS = tested on: SNB-19 CNS
T-47D breast = tested on: T-47D breast
COLO 205 colon = tested on: COLO 205 colon
SK-MEL-28 melanoma = tested on: SK-MEL-28 melanoma
SNB-75 CNS = tested on: SNB-75 CNS
NCI-H460 lung = tested on: NCI-H460 lung
SK-OV-3 ovarian = tested on: SK-OV-3 ovarian
CAKI-1 renal = tested on: CAKI-1 renal
HCT-116 colon = tested on: HCT-116 colon
SF-268 CNS = tested on: SF-268 CNS
SK-MEL-5 melanoma = tested on: SK-MEL-5 melanoma
TK-10 renal = tested on: TK-10 renal
SN12C renal = tested on: SN12C renal
U251 CNS = tested on: U251 CNS
NCI-H226 lung = tested on: NCI-H226 lung
RPMI-8226 leukemia = tested on: RPMI-8226 leukemia
SR leukemia = tested on: SR leukemia
SF-295 CNS = tested on: SF-295 CNS
SK-MEL-2 melanoma = tested on: SK-MEL-2 melanoma
MDA-MB-231 breast = tested on: MDA-MB-231 breast
EKVX NSCLC = tested on: EKVX NSCLC
MDA-MB-435 = tested on: MDA-MB-435
K-562 leukemia = tested on: K-562 leukemia
MDA-N = tested on: MDA-N
NCI-H522 lung = tested on: NCI-H522 lung
RXF 393 renal = tested on: RXF 393 renal
KM12 colon = tested on: KM12 colon
HCT-15 colon = tested on: HCT-15 colon
MALME-3M melanoma = tested on: MALME-3M melanoma
NCI/ADR-RES ovarian = tested on: NCI/ADR-RES ovarian
IGROV1 ovarian = tested on: IGROV1 ovarian
MOLT-4 leukemia = tested on: MOLT-4 leukemia
OVCAR-5 ovarian = tested on: OVCAR-5 ovarian
PC-3 prostate = tested on: PC-3 prostate
HL-60(TB) leukemia = tested on: HL-60(TB) leukemia
HCC-2998 colon = tested on: HCC-2998 colon
CCRF-CEM leukemia = tested on: CCRF-CEM leukemia

Measured: TGI

O=C(O)c1ccccc1CN1CCCC(C(=O)O)C1 (stereo not drawn)
not listed: HL-60(TB) leukemia | HCC-2998 colon | CCRF-CEM leukemia
> 100 µM: all other assays above

O=C(CCC(=O)c1ccsc1)c1ccsc1
not listed: HT29 colon | EKVX NSCLC | K-562 leukemia | CCRF-CEM leukemia
> 100 µM: all other assays above

CN(Cc1cnc2nc(N)nc(N)c2n1)c1ccc(C(=O)NCCCS(=O)(=O)O)cc1
not listed: HOP-92 NSCLC | CAKI-1 renal | RXF 393 renal | HL-60(TB) leukemia | CCRF-CEM leukemia
> 100 µM: all other assays above

CC(CN1NC12CCCC2)N1NC12CCCC2 (stereo not drawn)
not listed: SR leukemia
> 100 µM: all other assays above
